Assay results reported in US20070072209A1, “Methods of treatment and diagnosis of Kaposi's sarcoma (KS) and KS related diseases” (priority 2005, published 2007).

Key:
KSHV = test: Immunofluorescent staining for latent (LANA-1/ORF73) and early lytic (ORF59) viral proteins after PMO-AS; format: cell-based; conditions: PMO-AS-treated KSHV-infected DMVEC
Text: KSHV-infected DMVEC. DMVECs were used as an in vitro model for examining cancerous transformation and viral replication, based, inter alia, on that fact that neoplastic cells in KS tumors are predominantly of vascular origin, whereas KSHV is primarily found in cells of endothelial origin. Specifically, a previously described DMVEC system (Moses et al., J. Virol. 73:6892-6902, 1999) was used for studying infection and transformation by KSHV. Briefly, DMVEC's were immortalized with the E6/E7 genes of human papillomavirus (HPV)-16 prior to infection with KSHV. […] KSHV was obtained from the supernatant of KSHV-infected B-cell lines (e.g., TPA-stimulated BCBL-1 cells). Infection was verified by DNA PCR for amplification of the KS330 BamH1 fragment of the ORF 26 gene, and RT-PCR for the spliced mRNA from the ORF29 gene. The percentage of latently infected cells was determined by immunofluorescent staining for LANA/ORF73. Lytic induction was evaluated with antibodies against an early lytic protein ORF59/PF-8 and a late lytic glycoprotein ORF K8.1A/B. DMVEC were used for experiments when 90% of cells expressed ORF73. In the absence of chemical induction, 2-5% of infected cells expressed ORF59 with approximately 10% of the ORF59-positive cells expressing K8.1A/B. Lytic replication can be induced, however, using phorbol esters such as […] (PMA) providing the ability to look for host genes involved in, or modulated by the lytic cycle as well.
To ascertain whether PMO-AS treatment could be indirectly influencing cell phenotype through an effect on KSHV lytic replication, cells treated with PMO-AS against c-Kit, RDC1 and Neuritin were evaluated by immunofluorescent staining for expression of latent (LANA-1/ORF73) and early lytic (ORF59) viral proteins as previously described (Moses, 1999).

KSHV-infected DMVEC = test: XTT assay of PMO-AS effect on post-confluent growth (Example 5); format: cell-based, human; conditions: 72 hours
Procedure: XTTAssay. Metabolism of XTT to a water-soluble formazan dye by viable cells gives a quantitative determination of relative cell number. The XTT assay was thus used to quantitatively assess the effect of PMO-AS treatment on KSHV focus formation and post-confluent growth. For these assays, KSHV-infected and uninfected DMVEC were seeded into 96-well flat-bottom Primaria trays at 10^4 cells/well, loaded with PMO-AS after overnight equilibration, and cultured for 72 hrs. For the final 4 hours of culture, 50 μl XTT (Roche Diagnostics, Indianapolis, Ind.) was added to each well and the optical density (OD) of each well was recorded by an ELISA reader between 450 and 500 nm. To verify efficient (>80%) PMO-AS uptake in the 96-well format, cells were treated with a FITC-tagged morpholino (FITC-PMO) and uptake visually assessed under a fluorescence microscope. This FITC-PMO also served as a control for any non-specific effect of the PMO-AS:EPEI complex on DMVEC growth. As a positive control, cells were treated with a c-Kit PMO-AS previously shown to inhibit KSHV-induced transformation (Moses, 2002). For NIH 3T3 cells, the XTT assay was performed in 96-well plates at a cell density of 10^4 cells/well, and OD measured at 48 hours.
In view of the above-described effects of Neuritin- and RDC1-specific PMO-AS in inhibiting focus formation of KSHV-infected DMVEC, a further determination was made to determine whether such inhibition correlated with reduced cellular proliferation. Such reduced cellular proliferation would be expected, because the development of multilayered cell foci requires additional cell growth that would not occur if contact inhibition was maintained. A colorimetric cellular proliferation assay was used to assess cell growth. […] This growth can be accurately assessed by monitoring the metabolism of XTT added to each well by measurement of optical density at […] (e.g., 4 hours post XTT addition). […] To verify efficient (>80%) PMO-AS uptake in the 96-well format, cells were treated with a FITC-tagged PMO-AS (FITC-PMO) and uptake visually assessed under a fluorescence microscope. […]

KIT: FITC-labeled PMO targeting the start codon of c-Kit, CGCCTCTCATCGCGGTAGCTGCG (SEQ ID NO:21) (all phosphorodiamidate morpholino (PMO); FITC label attached, position not given here)
expression of ORF73 (latent viral protein) (KSHV): maintained expression of ORF73 | effect on cell growth in XTT assay (in words) (KSHV-infected DMVEC): dramatically inhibited cell growth

Neuritin: PMO antisense to Neuritin, TTAACTCCCATCCTACGTTTAGTCA (SEQ ID NO:19) (all phosphorodiamidate morpholino (PMO); delivered paired with partially complementary DNA oligo (Special Delivery))
expression of ORF73 (latent viral protein) (KSHV): maintained expression of ORF73 | effect on cell growth in XTT assay (in words) (KSHV-infected DMVEC): dramatically inhibited cell growth

RDC-1: PMO antisense to RDC-1, GAAGAGATGCAGATCCATCGTTCTG (SEQ ID NO:15) (all phosphorodiamidate morpholino (PMO); delivered paired with partially complementary DNA oligo (Special Delivery))
expression of ORF73 (latent viral protein) (KSHV): maintained expression of ORF73 | effect on cell growth in XTT assay (in words) (KSHV-infected DMVEC): dramatically inhibited cell growth
